# Measurements published in ChEMBL document CHEMBL4376864, “Binding Loop Substitutions in the Cyclic Peptide SFTI-1 Generate Potent and Selective Chymase Inhibitors” (J Med Chem, 2020).
# Bridge positions count the residues as written; N and C are the ends. Square brackets hold non-standard residues; d marks the D form. Peptide text beside a SMILES is read from it. Phe(4-Cl) = N[C@@H](Cc1ccc(Cl)cc1)C(=O)O; Phe(4-I) = N[C@@H](Cc1ccc(I)cc1)C(=O)O; Phe(4-Me) = Cc1ccc(C[C@H](N)C(=O)O)cc1
# Assays:
# [1] = Inhibition of human cationic trypsin using Boc-VPR-MCA as substrate at pH 8 and 298 K measured every 60 secs for 600 secs
# Chymase [2] = molecular target: T1, Chymase (Homo sapiens, UniProt P23946); assay: Inhibition of recombinant human chymase expressed in Pichia pastoris X-33 cells using NleTDY-pNA as substrate assessed as cleavage of pNA at pH 7.2 and 298 K by spectrophotometry analysis
# T1 sequence (P23946 whole entry): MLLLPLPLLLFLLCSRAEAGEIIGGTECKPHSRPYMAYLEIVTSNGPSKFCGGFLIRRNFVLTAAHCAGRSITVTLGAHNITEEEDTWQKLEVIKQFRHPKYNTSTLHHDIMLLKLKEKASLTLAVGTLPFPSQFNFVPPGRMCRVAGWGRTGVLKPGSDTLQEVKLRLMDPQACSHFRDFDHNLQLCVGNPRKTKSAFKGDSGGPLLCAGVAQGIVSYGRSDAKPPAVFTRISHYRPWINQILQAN
# Cathepsin G = molecular target: T2, Cathepsin G (Homo sapiens, UniProt P08311); assay: Inhibition of human cathepsin G using Suc-AAPF-MCA as substrate at pH 7.2 and 298 K measured every 60 secs for 600 secs
# T2 sequence (P08311 whole entry): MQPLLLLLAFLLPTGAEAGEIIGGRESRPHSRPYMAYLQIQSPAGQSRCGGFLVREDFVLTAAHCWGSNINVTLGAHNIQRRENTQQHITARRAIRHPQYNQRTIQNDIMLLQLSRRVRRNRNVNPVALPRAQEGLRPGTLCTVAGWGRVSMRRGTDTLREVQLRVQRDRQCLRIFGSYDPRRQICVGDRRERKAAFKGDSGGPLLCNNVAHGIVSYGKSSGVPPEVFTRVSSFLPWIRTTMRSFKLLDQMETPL
# Neutrophil elastase = molecular target: T3, Neutrophil elastase (Homo sapiens, UniProt P08246); assay: Inhibition of human neutrophil elastase using MeOSuc-AAPV-MCA as substrate at pH 7.2 and 298 K measured every 60 secs for 600 secs
# T3 sequence (P08246 whole entry): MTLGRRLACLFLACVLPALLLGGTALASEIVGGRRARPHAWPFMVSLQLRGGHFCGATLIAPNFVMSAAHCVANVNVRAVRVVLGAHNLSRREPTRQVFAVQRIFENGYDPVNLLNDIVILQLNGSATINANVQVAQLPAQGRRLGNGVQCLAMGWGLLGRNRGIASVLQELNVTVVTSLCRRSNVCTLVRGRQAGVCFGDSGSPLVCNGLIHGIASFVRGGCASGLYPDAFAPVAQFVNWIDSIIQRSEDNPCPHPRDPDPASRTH
# Chymotrypsin = Chymotrypsin (Homo sapiens, UniProt Q99895+P17538+P40313+Q6GPI1); assay: Inhibition of human chymotrypsin using Suc-AAPF-MCA as substrate at pH 8 and 298 K measured every 60 secs for 600 secs; format: protein assay
# Prothrombin = Prothrombin (Homo sapiens, UniProt P00734); assay: Inhibition of human thrombin using Boc-VPR-MCA as substrate at pH 8 and 298 K measured every 60 secs for 600 secs
# Chymase [3] = molecular target: T1, Chymase; assay: Inhibition of recombinant human chymase expressed in Pichia pastoris X-33 cells assessed as decrease in angiotensin 1 cleavage to angiotensin 2 incubated for 120 mins at 298 K by UPLC-MS analysis
# Kallikrein-7 = Kallikrein-7 (Homo sapiens, UniProt P49862); assay: Inhibition of recombinant human KLK7 expressed in Pichia pastoris X-33 using KHLY-pNA as substrate at pH 8 and 298 K measured every 60 secs for 600 secs
# Coagulation factor XII = molecular target: T4, Coagulation factor XII (Homo sapiens, UniProt P00748); assay: Inhibition of human coagulation factor 12a using Ac-QRFR-pNA as substrate at pH 8 and 298 K measured every 60 secs for 600 secs
# T4 sequence (P00748 whole entry): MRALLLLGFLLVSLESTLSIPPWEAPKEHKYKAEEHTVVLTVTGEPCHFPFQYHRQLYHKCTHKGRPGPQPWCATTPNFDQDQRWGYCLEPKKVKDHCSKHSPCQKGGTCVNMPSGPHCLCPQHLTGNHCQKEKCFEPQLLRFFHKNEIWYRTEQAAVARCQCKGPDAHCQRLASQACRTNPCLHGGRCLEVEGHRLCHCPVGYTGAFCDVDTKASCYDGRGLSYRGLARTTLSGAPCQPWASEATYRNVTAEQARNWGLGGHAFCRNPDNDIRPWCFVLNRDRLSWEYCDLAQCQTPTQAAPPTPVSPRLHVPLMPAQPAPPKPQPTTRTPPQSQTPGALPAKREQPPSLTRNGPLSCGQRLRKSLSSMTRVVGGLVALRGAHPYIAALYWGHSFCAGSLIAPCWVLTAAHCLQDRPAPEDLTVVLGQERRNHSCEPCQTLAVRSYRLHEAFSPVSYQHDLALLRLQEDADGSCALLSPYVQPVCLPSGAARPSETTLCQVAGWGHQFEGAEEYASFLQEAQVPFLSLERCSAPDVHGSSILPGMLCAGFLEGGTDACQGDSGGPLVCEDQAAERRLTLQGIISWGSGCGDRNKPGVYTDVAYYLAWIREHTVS
# Homo sapiens [4] = species: Homo sapiens; assay: Selectivity index, ratio of Ki for human chymotrypsin using Suc-AAPF-MCA as substrate to Ki for recombinant human chymase expressed in Pichia pastoris X-33 cells using NleTDY-pNA as substrate
# Homo sapiens [5] = species: Homo sapiens; assay: Selectivity index, ratio of Ki for human cathepsin G using Suc-AAPF-MCA as substrate to Ki for recombinant human chymase expressed in Pichia pastoris X-33 cells using NleTDY-pNA as substrate
# Kallikrein-7, sequence (P49862 whole entry): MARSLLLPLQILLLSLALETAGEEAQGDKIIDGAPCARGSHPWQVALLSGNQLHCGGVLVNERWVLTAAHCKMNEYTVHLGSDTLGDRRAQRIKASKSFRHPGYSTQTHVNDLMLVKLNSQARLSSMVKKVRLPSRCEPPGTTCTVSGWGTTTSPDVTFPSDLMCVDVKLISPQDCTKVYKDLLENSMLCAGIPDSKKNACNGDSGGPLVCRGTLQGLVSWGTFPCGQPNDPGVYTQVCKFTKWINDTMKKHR
IC50 [1] [nM],Ki (Chymase [2]) [nM],Ki (Cathepsin G) [nM],IC50 (Neutrophil elastase) [nM],IC50 (Chymotrypsin) [nM],IC50 (Prothrombin) [nM],IC50 (Chymase [3]) [nM],IC50 (Kallikrein-7) [nM],IC50 (Coagulation factor XII) [nM],Ki (Chymotrypsin) [nM],Structure (SMILES),Ratio Ki (Homo sapiens [4]),Ratio Ki (Homo sapiens [5])
> 10000,19,1200,> 10000,> 10000,> 10000,290,> 10000,> 10000,,N=C(N)NCCC[C@@H]1NC(=O)CNC(=O)[C@H](CC(=O)O)NC(=O)[C@@H]2CCCN2C(=O)[C@H](Cc2ccccc2)NC(=O)[C@@H]2CSSC[C@H](NC1=O)C(=O)N[C@@H](CCC(N)=O)C(=O)N[C@@H](Cc1ccc(I)cc1)C(=O)N[C@@H](CO)C(=O)N[C@@H](CCC(=O)O)C(=O)N1CCC[C@H]1C(=O)N1CCC[C@H]1C(=O)N[C@@H](CCC(=O)O)C(=O)N2 (cyclo(CFPDGRCQ[Phe(4-I)]SEPPE); disulfide 1-7),,
,6.6,54,,,,,,,2900,N=C(N)NCCC[C@@H]1NC(=O)CNC(=O)[C@H](CC(=O)O)NC(=O)[C@@H]2CCCN2C(=O)[C@H](Cc2ccccc2)NC(=O)[C@@H]2CSSC[C@H](NC1=O)C(=O)N[C@@H](CCC(N)=O)C(=O)N[C@@H](Cc1ccc(O)cc1)C(=O)N[C@@H](CO)C(=O)N[C@@H](CCC(=O)O)C(=O)N1CCC[C@H]1C(=O)N1CCC[C@H]1C(=O)N[C@@H](CCC(=O)O)C(=O)N2 (cyclo(CFPDGRCQYSEPPE); disulfide 1-7),440,8.2
> 10000,2.2,160,> 10000,,> 10000,,> 10000,> 10000,1500,Cc1ccc(C[C@@H]2NC(=O)[C@H](CCC(N)=O)NC(=O)[C@@H]3CSSC[C@H](NC(=O)[C@H](CCC(=O)O)NC(=O)[C@@H]4CCCN4C(=O)[C@@H]4CCCN4C(=O)[C@H](CCC(=O)O)NC(=O)[C@H](CO)NC2=O)C(=O)N[C@@H](Cc2ccccc2)C(=O)N2CCC[C@H]2C(=O)N[C@@H](CC(=O)O)C(=O)NCC(=O)N[C@@H](CCCNC(=N)N)C(=O)N3)cc1 (cyclo(CFPDGRCQ[Phe(4-Me)]SEPPE); disulfide 1-7),180,72 to 80
> 10000,1.8,150,> 10000,,> 10000,33,> 10000,> 10000,330,N=C(N)NCCC[C@@H]1NC(=O)CNC(=O)[C@H](CC(=O)O)NC(=O)[C@@H]2CCCN2C(=O)[C@H](Cc2ccccc2)NC(=O)[C@@H]2CSSC[C@H](NC1=O)C(=O)N[C@@H](CCC(N)=O)C(=O)N[C@@H](Cc1ccc(Cl)cc1)C(=O)N[C@@H](CO)C(=O)N[C@@H](CCC(=O)O)C(=O)N1CCC[C@H]1C(=O)N1CCC[C@H]1C(=O)N[C@@H](CCC(=O)O)C(=O)N2 (cyclo(CFPDGRCQ[Phe(4-Cl)]SEPPE); disulfide 1-7),,83
